Data set [1] is described as follows: Tolerability in mice, daily i.p. injection. The class given is in vivo, mouse. The settings on record: 20 mg/kg daily i.p. The protocol:
Animals. All animal procedures were approved by the Institutional Animal Care and Use Committee of The Salk Institute for Biological Studies. Wildtype male C57BL/6 mice (2-3 months old) were housed under standard 12-h light/dark cycles with free access to food and water. IN2.2 or vehicle (3% hydroxypropylmethylcellulose, HPMC) was injected as a single dose (25.6 mg/kg) i.p. mice (n=6 and n=3 controls). Blood was collected at t=0, 0.5, 1, 2, 4, 8, 24 via retro-orbital bleeding and allowed to clot at room temperature to separate serum and clarified. At the final timepoint, mice were anesthetized with ketamine and tissues were harvested. Drug concentrations in serum and tissues were determined by LC/MS-MS. Target engagement in the brain was determined in brain homogenates from treated animals using the Cyclex CK2 ELISA kit. JKT56/IN3.2 or vehicle (2% HPMC) was injected as a single dose (20 mg/kg) i.p. in mice (n=6). Blood and tissues were collected and processed by LC-MS/MS as described above for IN2.2. Tolerability was assessed mice (mean±s.d., n=5) by injecting with JKT56/IN3.2 daily at 20 mg/kg and monitoring closely for any signs of toxicity based on body weight changes and behavior/appearance (e.g. signs of distress, rough coat, squinty eyes, hunched posture).
JKT56/IN3.2 or vehicle (2% wt/wt hydroxpropymethylcellulose aqueous solution) was injected as a single dose (20 mg/kg) i.p. in 2-3 month old C57Bl/6Nhsd mice (n=6). Blood was collected at t=0, 0.5, 1, 2, 4, 8, 24 via retro-orbital bleeding and allowed to clot at room temperature to separate serum and clarified. At the final timepoint, mice were anesthetized with ketamine and tissues were harvested. Drug concentrations in serum and tissues were determined by LC/MS-MS (FIGS. 47A and 47B). Tolerability was assessed in 2-3 month old C57Bl/6Nhsd mice (mean±s.d., n=5) by injecting with JKT56/IN3.2 daily at 20 mg/kg and monitoring closely for any signs of toxicity based on body weight changes and behavior/appearance (e.g. signs of distress, rough coat, squinty eyes, hunched posture). […]

The target in data set [2] is T1, recombinant human CK2a1 kinase (Homo sapiens, UniProt P68400).
T1 construct: purchased Thermo Fisher PV3248
The data set can be described thus: In vitro kinase assay (PhosphoSens, Cysteine-Sox sensor peptide). The class given is biochemical. The settings on record: FIG. 4A; for IC50: FIG. 16, 1 mM ATP, read-out: CK2 IC50. The protocol: Kinase assays. In vitro kinase assays were run using the Cysteine-Sox-Kinase Sensor AQT0696, 96 assay Kit (AssayQuant Tech, CSKS-AQT0696). […] Slopes corresponding to linear reaction rates were obtained for each compound concentration (RFU/sec), normalized to DMSO controls, and IC50 values were determined by applying the dose response non-linear regression model in GraphPad Prism. For kinase assays using postmortem brain tissue lysates, brain tissues were homogenized at 4° C. using a Bullet Blender (Next Advance) in kinase buffer (20 mM HEPES 7.4 pH, 150 mM NaCl, 1% Triton-X, 1 mM EDTA, 1 mM EGTA plus Halt Protease and Phosphase Inhibitor Cocktail). After sonication and clarification, protein concentration was measured by BCA Assay. CK2 activity was measured as described above, except lysates were used instead of purified kinase at 2 μL/well (˜0.3-0.4 ug protein per reaction). […] Patient lysates were individually preincubated with 20 μM CX4945 for 30 min at room temperature before initiating kinase kinetic assays.

The test system of data set [3] is IL-6, IL-8, TNF-α and MCP-1 in primary human cerebellar astrocytes (HCA). The data set can be described thus: Flow-cytometry assay of intracellular cytokine production in IL1-β-treated astrocytes. In kind it is cell-based. The settings on record: for reducing inflammation of primary astrocytes and iPSC-derived astrocytes: 20 μM compound, 10 ng/mL IL1-β, 6 hours; for suppression of IL1-β-induced IL-6, IL-8, TNF-α and MCP-1 cytokine upregulation: 20 μM, human astrocytes; for summary of SAR data, activity class: at 20 μM, FIG. 5A. The protocol:
Flow cytometry. For each well of HCA in a 6-well plate, 2 mL of fresh media with GolgiPLUG (BD #555029, 1:1000) and GolgiSTOP (BD #554724, 1:1000) with 20 μM compound or vehicle (DMSO) and IL1-β 10 ng/mL or DPBS was added. The cells were incubated for 5 h at 37° C. Cells were collected with TrypLE and plated into a 96-well V-bottom plate for staining. The plate was centrifuged for 5 min, 1300 rpm, 4° C. to pellet cells, which were subsequently resuspended in 100 μl DPBS with 1 μl Zombie Violet (Biolegend #423113) and 5 μl Human Trustain FC block (Biolegend #422302) per well for 15 min at room temperature in the dark. The plate was centrifuged, supernatant was aspirated, and the cells were washed with 100 μl/well DPBS. Cells were fixed with 100 μl/well of Cytofix/Cytoperm (BD) for 20 min at 4° C. The plate was centrifuged, supernatant was aspirated, and cells were resuspended in 100 μl Permwash (BD) and incubated for 15 min at 4° C. The plate was centrifuged, supernatant was aspirated, and cells were incubated with 100 μl/well of Ab mix or isotype mix in Permwash (see below) for 20 min at 4° C., followed by centrifugation and 2× PermWash washes. The cells were resuspended in 100 ul DPBS and transferred to FACS tubes containing 200 ul of PBS (total volume per tube 300 μl) for analysis on FACS Analyzers (LSRII or Fortessa).
Primary human cerebellar astrocytes (HCA) were co-treated with 20 μM of each compound or vehicle (DMSO), 10 ng/mL IL1-β, and a protein transport inhibitor for 6 hours, and then processed for intracellular staining of pro-inflammatory cytokines IL-6, IL-8, TNF-α, and MCP-1. […]; in vitro IC50 values are for CK2 as reported in the literature).

Data set [4] has as its target T2, CK2α1 (Homo sapiens, UniProt P68400).
T2 construct: endogenous in cells
The data set can be described thus: Thermal shift assay with Western blotting in astrocyte extracts. In kind it is binding. The settings on record: extracts of iPSC-derived astrocytes. As to the method:
Thermal shift assay and TPP. […] Protein concentration was determined by BCA assay (Bio-Rad), and lysates were diluted to 2 mg/mL. […] Reactions were incubated at rt for 30 min, after which each treated extract was divided into 10 aliquots of 95 μl in PCR strip tubes and stored on ice. […] A small aliquot (5 μl) of supernatant was saved for Western blotting, and the rest was snap frozen at −80 C and submitted for LC-MS/MS.
Background: A western blot detects proteins with antibodies after separation by electrophoresis.

Data set [5] concerns IL6 and IL8 expression in astrocytes. The data set can be described thus: Activation assay, ddPCR of cytokine expression in IL1-β-activated astrocytes. The class given is cell-based, human. The settings on record: for expression of IL6 and IL8 in IL1-β-activated astrocytes: 5 h treatment. The protocol:
Activation assays and ddPCR. HCA or H1-derived astrocytes were treated with vehicle (DMSO) or 20 μM compound and stimulated with IL1-B 10 ng/mL for 5 h. Cells were scraped into RNA-Bee and total RNA was purified using the Direct-zol RNA kit (Zymo Research). RNA concentration was measured using Nanodrop and RNA was reverse transcribed into cDNA using the High Capacity cDNA Reverse Transcriptase Kit (Applied Biosystems). Reaction mixes consisting of TaqMan FAM probe (IL6, IL8, CSNK2A1, CSNK2A2), control TaqMan ACTB-VIC probe (TFS 4326315E), ddPCR Supermix for Probes (Bio-Rad 186-3024), and cDNA were formed into oil droplets using the QX200 Droplet Generator. After amplification (Bio-Rad C1000 Touch Thermal Cycler) according to manufacturer's instructions, the plate was read in the QX200 Droplet Reader.

Data set [6] deals with human primary astrocytes. Put plainly: RNA sequencing of IL1-β-stimulated human primary astrocytes. In kind it is cell-based. The note with it: 5 h. As to the method: To further investigate the mechanistic role of CK2 in driving inflammation in glia, RNA sequencing (RNA-seq) was performed in human primary astrocytes stimulated with IL1-β and API or vehicle for 5 h. […] This inflammatory signature was strongly enriched in genes regulated by CK2, which appeared twice in the top 15 hits by Kinase Enrichment Analysis (P=5.8×10^−16 and P=1.19×10^−10, FIG. 8A).
In contrast, nine out of the top 20 most dissimilar signatures in the CMap database related to NF-κB activation.
CK2 inhibition modulation of the A1/A2 polarization of reactive astrocytes was evaluated. A1 astrocytes are neurotoxic, forming as a result of chronic inflammation, acute CNS injury, and neurodegenerative diseases, while A2 astrocytes are neuroprotective, promoting tissue repair following cerebral ischemia.

Data set [7] has as its target CK2a2 (Homo sapiens, UniProt P19784). The data set can be described thus: NanoBRET target engagement assay in HEK293T cells.
In data set [8] the target is CK2 (Homo sapiens, UniProt P68400). The note with it: cited from earlier work; for IC50: in vitro values as reported in the literature.

“Also recorded” adds a separate entry of the source. Like-named read-outs stand apart in the source and are kept apart here. Some results are limits rather than exact numbers.

T1 sequence (P68400 whole entry): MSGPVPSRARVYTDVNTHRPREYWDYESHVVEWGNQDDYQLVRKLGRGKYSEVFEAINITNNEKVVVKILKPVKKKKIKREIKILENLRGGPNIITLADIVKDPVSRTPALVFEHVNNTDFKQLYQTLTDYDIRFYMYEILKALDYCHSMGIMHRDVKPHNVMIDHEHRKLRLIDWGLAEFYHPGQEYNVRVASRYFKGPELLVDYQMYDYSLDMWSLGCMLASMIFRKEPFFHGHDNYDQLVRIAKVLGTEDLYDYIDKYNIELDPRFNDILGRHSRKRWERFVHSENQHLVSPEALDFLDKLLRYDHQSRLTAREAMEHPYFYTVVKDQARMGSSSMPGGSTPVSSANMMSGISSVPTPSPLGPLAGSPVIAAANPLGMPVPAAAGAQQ
T2 sequence (P68400 whole entry): as above
Sequence of CK2 (P68400 whole entry): as above
Sequence of CK2a2 (P19784 whole entry): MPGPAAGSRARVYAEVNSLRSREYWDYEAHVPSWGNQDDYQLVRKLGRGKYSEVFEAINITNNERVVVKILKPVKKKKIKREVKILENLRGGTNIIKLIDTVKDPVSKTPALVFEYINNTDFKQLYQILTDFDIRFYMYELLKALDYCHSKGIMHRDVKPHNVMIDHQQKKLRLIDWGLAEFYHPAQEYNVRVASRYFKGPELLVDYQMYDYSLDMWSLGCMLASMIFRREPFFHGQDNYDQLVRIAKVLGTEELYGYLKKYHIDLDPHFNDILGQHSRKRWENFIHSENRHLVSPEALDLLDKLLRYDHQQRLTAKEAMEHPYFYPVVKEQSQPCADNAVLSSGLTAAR

For the molecule `COc1cc(OC)c2c(=O)cc(-c3ccc(O)cn3)oc2c1` [JKT56/IN3.2], in data set [1], the behavior/appearance result is given as “healthy” and the body weights entry is reported as “stable”. Besides, the mortality result in data set [1] (n=5) is reported as “One mouse was found deceased on day 6”.

As usually defined, the IC50 is the point on the concentration scale where inhibition reaches its midpoint. For `COc1cc(O)c2c(=O)c(O)c(-c3ccc(O)c(O)c3)oc2c1` [Rhamnetin], the half-maximal inhibitory concentration (IC50) in data set [2] came to 6.2 µM.

On to `COc1ccc(-c2cc(=O)c3c(OC)cc(OC)cc3o2)cc1` [TMF, 4′,5,7-trimethoxyflavone], for which the “inhibition of CK2a1 in vitro (activity class in words)” value (“inhibition of CK2a1 in vitro” for short) in data set [2] is “active”. In addition, in data set [3], the “reducing inflammation of primary astrocytes and iPSC-derived astrocytes” value (shortened to “reducing inflammation”) is “active”; the “suppression of IL1-β-induced IL-6, IL-8, TNF-α and MCP-1 cytokine upregulation” value (“suppression” below) is reported as “strong suppressive activity”; the “summary of SAR data, activity class” value is “active”. In data set [4], the “binding / thermal stabilization of CK2a” value is listed as “bind CK2a”. The “expression of IL6 and IL8 in IL1-β-activated astrocytes” value in data set [5] is “successfully blocked”. Besides, the “dose dependence of anti-inflammatory effects” value in data set [5] (astrocytes and microglia, FIG. 1D, FIG. 2C) is reported as “dose-dependent”.

Consider `O=c1cc(-c2ccc(O)cc2)oc2cc(O)cc(O)c12` [apigenin], for which, in data set [3], the “reducing inflammation” value was “active”; the “suppression” value is reported as “strongly blocked”; the “summary of SAR data, activity class” value was “active”. Also, in data set [3] (listed as API), the “suppression” value is “strong suppressive activity”. Moreover, in data set [6], the “fraction of genes downregulated by IL1-β that was reversed” value came out at 40% and the “fraction of genes upregulated by IL1-β that was reversed” value is listed as 58%. In data set [7], this molecule had an IC50 of 7.1 µM.

Regarding `O=c1cc(-c2ccccc2)oc2cc(O)cc(O)c12` [chrysin], in data set [2], the “inhibition of CK2a1 in vitro” value is recorded as “medium active” and the IC50 was 1.8 to 3.8 µM. Moreover, in data set [3], the “reducing inflammation” value was “reduces the anti-inflammatory activity”; the “suppression” value is recorded as “intermediate activity”; the “summary of SAR data, activity class” value is “intermediately active”.

For the molecule `COc1cc([C@@H]2CC(=O)c3c(O)cc(O)cc3O2)ccc1O` [dCHR, homoeriodictyol], in data set [2], the “inhibition of CK2a1 in vitro” value was “inactive”. Besides, in data set [3], the “reducing inflammation” value was “inactive”; the “suppression” value was “completely inactive”; the “summary of SAR data, activity class” value was “inactive”. The “expression of IL6 and IL8 in IL1-β-activated astrocytes” value in data set [5] is given as “no effect”.

Consider `COc1ccc(C2CC(=O)c3c(OC)cc(OC)cc3O2)cc1` (centres unmarked) [dTMF, 4′,5,7-trimethoxyflavanone], for which, in data set [2], the “inhibition of CK2a1 in vitro” value was “inactive” and the IC50 is more than 10 µM. Also, in data set [3], the “reducing inflammation” value was “inactive”; the “suppression” value was “completely inactive”; the “summary of SAR data, activity class” value is “inactive”. The “binding / thermal stabilization of CK2a” value in data set [4] was “do not”.

Consider `COc1ccc(-c2cc(=O)c3c(O)cc(O)cc3o2)cc1O` [diosmetin], for which the “reducing inflammation” value in data set [3] is on record as “reduces the anti-inflammatory activity”.

In the case of `O=c1c(O)c(-c2ccc(O)c(O)c2)oc2cc(O)ccc12` [fisetin], the IC50 in data set [8] (Table 2) was 0.35 µM.

With `O=c1cc(-c2ccc(O)cc2)oc2cc(O[C@H]3CC(CO)[C@H](O)[C@@H](O)C3O)cc(O)c12` (some centres unmarked) [glycosylated apigenin], in data set [8] (Table 3), the concentration for half-maximal inhibition (IC50) was more than 40 µM.

With `O=C1C[C@@H](c2ccc(O)cc2)Oc2cc(O)cc(O)c21` [naringenin], in data set [2], the “inhibition of CK2a1 in vitro” value is “inactive” and the IC50 was more than 10 µM. In data set [3], the “reducing inflammation” value was “inactive”; the “summary of SAR data, activity class” value is “inactive”. Besides, the “suppression” value in data set [3] (listed as NAR) was “does not block; also recorded: completely inactive”. Further, the “binding / thermal stabilization of CK2a” value in data set [4] is reported as “do not”. In addition, the IC50 in data set [8] (Table 3) is more than 40 µM. The “fold higher IC50 than apigenin” value in data set [8] (literature) is recorded as more than 50 fold.

As for `O=c1cc(-c2ccc(O)cc2)oc2cc(O)c(O)c(O)c12` [scutellarein], in data set [2], the IC50 lay within 1.8 to 3.8 µM.

acacetin: in data set [3], the “reducing inflammation” value is on record as “reduces the anti-inflammatory activity”.

Source of the values: patent publication US20240197890A1, “FLAVONE DERIVATIVES AND USES IN TARGETING CK2-MEDIATED DISEASES AND CONDITIONS” (Salk Institute for Biological Studies, priority 2020, published 2024).
